Measured values reported in patent US20230150929A1, “SELECTIVE NON-CYCLIC NUCLEOTIDE ACTIVATORS FOR THE CAMP SENSOR EPAC1” (The Board of Regents of The University of Texas System, priority 2020, published 2023).

These compounds were tested against T1, EPAC1-ΔDEP (aa. 149-881) (Homo sapiens, UniProt O95398) (assay: 8-NBD-cAMP competition binding assay, EPAC1-ΔDEP). Details: eleven-point dose-response 1-100 µM; mean ± SEM.
T1 construct: EPAC1-ΔDEP (149-881); GST (N); made in house; host or cells: Escherichia coli BL21 Star (DE3)
T1 sequence (O95398 149-881 isoform O95398-3): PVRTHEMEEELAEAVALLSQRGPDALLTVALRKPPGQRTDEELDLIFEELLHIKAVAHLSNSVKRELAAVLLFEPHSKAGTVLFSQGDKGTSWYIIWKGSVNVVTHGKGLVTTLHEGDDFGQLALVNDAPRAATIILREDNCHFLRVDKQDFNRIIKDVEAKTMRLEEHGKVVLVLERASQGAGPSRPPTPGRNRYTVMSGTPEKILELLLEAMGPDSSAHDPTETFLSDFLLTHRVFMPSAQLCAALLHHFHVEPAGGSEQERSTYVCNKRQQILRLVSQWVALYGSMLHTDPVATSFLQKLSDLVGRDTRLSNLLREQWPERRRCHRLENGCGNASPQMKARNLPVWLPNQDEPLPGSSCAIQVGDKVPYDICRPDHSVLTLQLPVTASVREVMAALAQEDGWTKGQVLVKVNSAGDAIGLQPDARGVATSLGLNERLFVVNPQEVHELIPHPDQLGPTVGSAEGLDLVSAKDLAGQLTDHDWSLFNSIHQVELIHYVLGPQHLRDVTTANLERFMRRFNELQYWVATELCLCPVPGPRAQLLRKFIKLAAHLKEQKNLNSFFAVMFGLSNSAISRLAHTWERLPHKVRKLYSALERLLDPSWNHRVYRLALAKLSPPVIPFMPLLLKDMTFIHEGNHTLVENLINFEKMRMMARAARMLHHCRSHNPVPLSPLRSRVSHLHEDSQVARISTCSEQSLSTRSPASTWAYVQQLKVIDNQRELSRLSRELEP
Text: Recombinant Protein Purification.
8-NBD-cAMP Competition Binding Assay.

IC50 [µM]	Structure (SMILES)
4.9	COc1ccc(S(=O)(=O)NC(=O)COc2ccc3ccccc3c2)c(OC)c1 [Compound 25g, N-((2,4-Dimethoxyphenyl)sulfonyl)-2-(naphthalen-2-yloxy)acetamide]
0.6	COc1ccc2ccc(OCC(=O)NS(=O)(=O)c3ccc(N)cc3OC)cc2c1 [Compound 25n, N-((4-Amino-2-methoxyphenyl)sulfonyl)-2-((7-methoxynaphthalen-2-yl)oxy)acetamide]
0.5	COc1ccc2ccc(OCC(=O)NS(=O)(=O)c3ccc4ccccc4c3)cc2c1 [Compound 25q, 2-((7-Methoxynaphthalen-2-yl)oxy)-N-(naphthalen-2-ylsulfonyl)acetamide]
